Patent US20200237711A1, “Compositions for Treating and/or Preventing Cancer” (Boston Biomedical, Inc., priority 2017, published 2020)

Key:
[1] = system: metabolism of 2-acetylnaphtho[2,3-b]furan-4,9-dione in human liver cytosol; assay: Screening for an inhibitor of a metabolic enzyme (human liver cytosol, LC-MS/MS); assay type: biochemical; settings: test drug 10 μmol/L, substrate 0.5 μmol/L, 37° C., 5 minutes (FIG. 9)
Experimental: To a reaction solution obtained by dissolving a human liver cytosol (0.1 mg/mL) and NADPH (1 mmol/L) in a phosphate buffer solution, a test drug (10 μmol/L) was added. Then, 2-acetylnaphtho[2,3-b]furan-4,9-dione was added to be 0.5 μmol/L and thereby the reaction was started. After incubation at 37° C. for 5 minutes, 50 nmol/L phenytoin solution, which had been dissolved in 0.1% formic acid-containing acetonitrile, was added and the reaction was terminated. After centrifugation, the resulting supernatant was measured using LC-MS/MS to quantify the residual amount of 2-acetylnaphtho[2,3-b]furan-4,9-dione, and the inhibition intensity of the test drugs was evaluated by comparison with the control group.

[2] = system: A549 cells; assay: Cytotoxic effect (cell survival rate, Prest Blue), A549; assay type: cell-based, human; settings: single agent treatment with 1.3 μmol/L, 6 hours (FIG. 12)
Experimental: (§1) A549 cells or H460 cells were seeded onto a 96-well culture plate (Corning) at 2×10^4/well, and then cultured at 37° C. under 5% carbon dioxide atmosphere in an incubator for 48 hours. […] After which, they were cultured in the presence or absence of a test compound (30 μmol/L of flufenamic acid, 100 μmol/L of flufenamic acid, or 100 μmol/L of mefenamic acid as a final concentration) for 6 hours, Prest Blue (Life Technologies) was added, and then incubated for 1 to 2 hours. After the incubation, absorbance at 570 nm was measured to evaluate the cytotoxicity. Absorbance of a well to which a cell had not been added (Ablank) is defined as the background, the cell survival rate was calculated using the following formula to divide a value obtained by multiplying 100 by a value obtained by subtracting the background absorbance from the absorbance of each well (Asample), by a value obtained by subtracting Ablank from the value (Acontrol) of a well in which a cell with no treatment with 2-acetylnaphtho[2,3-b]furan-4,9-dione or a metabolic inhibitor was contained.
(§2) Cell survival rate (%)=(Asample−Ablank)×100/(Acontrol−Ablank)

[3] = system: H460 cells; assay: Cytotoxic effect (cell survival rate, Prest Blue), H460; assay type: cell-based, human; settings: single agent treatment with 1.3 μmol/L, 6 hours (FIG. 12)
Experimental: as §1, §2

[4] = Metabolism measurement of 2-acetylnaphtho[2,3-b]furan-4,9-dione in human liver cytosol fractions; assay type: in vitro ADME; settings: [14C]-labeled compound 0.5 μmol/L, human liver cytosol 0.1 mg/mL, 37° C. (FIG. 7)
Experimental: A reaction solution obtained by dissolving a human liver cytosol (0.1 mg/mL) and NADPH (1 mmol/L) in a phosphate buffer solution was prepared. Into the reaction solution, [^14C]-labeled labeled 2-acetylnaphtho[2,3-b]furan-4,9-dione was added such that the dione concentration is 0.5 μmol/L, and thereby the reaction was started. After incubation at 37° C. for a given time, 0.1% formic acid-containing acetonitrile was added to terminate the reaction, and the mixture was centrifuged. After the supernatant was evaporated to dryness under a stream nitrogen gas, re-dissolving solvent [10 mmol/L ammonium acetate:acetonitrile, 9:1 (v/v)] was used to re-dissolve it, and then Radio-HPLC was used to measure radioactivity.

[5] = system: metabolism of 2-acetylnaphtho[2,3-b]furan-4,9-dione in human liver cytosol (AKR and CR); assay: Identification of a metabolic enzyme of 2-acetylnaphtho[2,3-b]furan-4,9-dione (CR/AKR inhibitors in human liver cytosol); assay type: biochemical; settings: AKR inhibitor 1.0 μmol/L or 10 μmol/L, 5 minutes (FIG. 8)
Experimental: To a reaction solution obtained by dissolving a human liver cytosol (0.1 mg/mL) and NADPH (1 mmol/L) in a phosphate buffer solution, quercitrin (10 μmol/L or 100 μmol/L), which is a CR inhibitor, and phenolphthalein or medroxyprogesterone 17-acetate (1.0 μmol/L or 10 μmol/L), which is an AKR inhibitor, were added. Further, [^14C]-labeled 2-acetylnaphtho[2,3-b]furan-4,9-dione was added to the reaction solution such that the dione concentration is 0.5 μmol/L. After incubation at 37° C. for 5 minutes, Radio-HPLC was used to measure radioactivity.

[6] = system: A549 cells; assay: Intracellular concentration of 2-acetylnaphtho[2,3-b]furan-4,9-dione with a metabolic inhibitor, A549; assay type: cell-based, human; settings: 1.0 μmol/L dione with 30 or 100 μmol/L inhibitor, 2 hours (FIG. 11)
Experimental: (§3) A549 cells or H460 cells were seeded onto a 96-well culture plate (made by Corning Inc.) at 2×10^4/well, and then cultured at 37° C. under 5% carbon dioxide atmosphere in an incubator for 48 hours. After which, they were cultured for 2 hours with 2-acetylnaphtho[2,3-b]furan-4,9-dione in a final concentration of 1.0 μmol/L and in the presence or absence of 30 μmol/L or 100 μmol/L of mefenamic acid or flufenamic acid, and then washed with PBS. After that, 80% methanol was added to each well to obtain a cell lysate. The cell lysate was analyzed using LC-MS/MS to determine the intracellular concentration of 2-acetylnaphtho[2,3-b]furan-4,9-dione.

[7] = system: H460 cells; assay: Intracellular concentration of 2-acetylnaphtho[2,3-b]furan-4,9-dione with a metabolic inhibitor, H460; assay type: cell-based, human; settings: 1.0 μmol/L dione with 30 or 100 μmol/L inhibitor, 2 hours (FIG. 11)
Experimental: as §3

[8] = system: A549 cells; assay: Anti-tumor effect in A549 tumor-bearing mice (tumor volume); assay type: in vivo, mouse; settings: tumor volume (FIG. 15)
Experimental: A549 cells of 5×10^6 per individual were transplanted to a right belly part of a 5 week aged mouse (BALB/cAnNCrlCrlj, male, Charles River Laboratories Japan, Inc.). After one week, the following administration solution (1), (2), (3), (4) or (5) was orally administered in a single time. (1) 100 mg/kg of mefenamic acid (2) 30 mg/kg of 2-acetylnaphtho[2,3-b]furan-4,9-dione (3) 100 mg/kg of 2-acetylnaphtho[2,3-b]furan-4,9-dione (4) 30 mg/kg of 2-acetylnaphtho[2,3-b]furan-4,9-dione and 100 mg/kg of mefenamic acid (5) 100 mg/kg of 2-acetylnaphtho[2,3-b]furan-4,9-dione and 100 mg/kg of mefenamic acid According to a schedule in which an administration solution or an administration solution without an agent was continuously administered for five days and then medication was ceased for two days and continuous administration for five days was carried out again, it was orally administered one time a day. The major axis and the minor axis of a tumor mass were measured by vernier calipers at 2 to 5 day intervals, and the tumor volume was calculated by substituting them into the formula: (minor axis)^2×(major axis)/2.

[9] = Concentration in plasma and tumor by combination with mefenamic acid in tumor-bearing mice; assay type: in vivo, mouse; settings: oral single dose
Experimental: The following administration solution (1), (2) or (3) was orally administered to 7 week aged mice (BALB/cAnNCrlCrlj, female, Charles River Laboratories Japan, Inc.) in a single time.
(1) 100 mg/kg of 2-acetylnaphtho[2,3-b]furan-4,9-dione
(2) 100 mg/kg of 2-acetylnaphtho[2,3-b]furan-4,9-dione and 100 mg/kg of mefenamic acid
(3) 100 mg/kg of 2-acetylnaphtho[2,3-b]furan-4,9-dione and 300 mg/kg of mefenamic acid
The blood was collected 2, 6, and 16 hours after the administration, and the blood was centrifuged to give plasma. Methanol was added to the plasma such that the final concentration of methanol is 80%, and then it was centrifuged. Further, protein-removing treatment was carried out by filtering through a filter, and then 2-acetylnaphtho[2,3-b]furan-4,9-dione was detected and quantified using LC-MS/MS (API4000, AB SCIEX). Meanwhile, a tumor mass was collected at the same time as the blood collection, 2-acetylnaphtho[2,3-b]furan-4,9-dione in the tumor was detected and quantified.

[10] = Concentration in plasma by combination with sulindac in cancer-bearing mice; assay type: in vivo, mouse; settings: oral single dose, 100 mg/kg dione with 25 mg/kg sulindac, two hours after administration (FIG. 14)
Experimental: The following administration solution (1) or (2) was orally administered to 8 week aged mice (BALB/cAnNCrlCrlj, female, Charles River Laboratories Japan, Inc.) in a single time. […] Methanol was added to the plasma such that the final concentration of methanol is 80%, and then it was centrifuged.

SMILES | inhibition of the metabolism of 2-acetylnaphtho[2,3-b]furan-4,9-dione (residual amount vs control) [1] | other results
CC(=O)N1CCN(c2ccc(OCC3COC(Cn4ccnc4)(c4ccc(Cl)cc4Cl)O3)cc2)CC1 (centres unmarked) [ketoconazole] | inhibited | –
C[C@H]1C[C@H]2[C@@H]3CCC4=CC(=O)C=C[C@]4(C)[C@@]3(F)[C@@H](O)C[C@]2(C)[C@@]1(O)C(=O)CCl [clobetasol] | inhibited | –
COc1ccc(Cl)cc1C(=O)NCCc1ccc(S(=O)(=O)NC(=O)NC2CCCCC2)cc1 [glibenclamide] | inhibited | –
C#C[C@]1(O)CC[C@H]2[C@@H]3CCc4cc(O)ccc4[C@H]3CC[C@@]21C [ethynyl estradiol] | inhibited | –
CC(=O)c1cc2c(o1)C(=O)c1ccccc1C2=O [2-acetylnaphtho[2,3-b]furan-4,9-dione] | – | cell survival rate [2]: ≥ 100%; cell survival rate [3]: ≥ 100%; metabolism in liver cytosol ([4]; NADPH 1 mmol/L): time-dependently metabolized; metabolite mainly produced in liver cytosol ([4]; NADPH): 2-(1-hydroxyethyl)naphtho[2,3-b]furan-4,9-dione (M1)
CC(C(O)c1ccc(O)cc1)N1CCC(Cc2ccccc2)CC1 (centres unmarked) [ifenprodil] | inhibited | –
CC1CC2C3CCC4=CC(=O)C=CC4(C)C3(F)C(=O)CC2(C)C1(O)C(=O)CCl (centres unmarked) [clobetasone] | inhibited | –
Cc1ccc(Cl)c(Nc2ccccc2C(=O)O)c1Cl [meclofenamic acid] | inhibited | –
CCC1=C(C)CN(C(=O)NCCc2ccc(S(=O)(=O)NC(=O)N[C@H]3CC[C@H](C)CC3)cc2)C1=O [glimepiride] | inhibited | –
CCc1oc2ccccc2c1C(=O)c1cc(Br)c(O)c(Br)c1 [benzbromarone] | inhibited | –
CC(=O)O[C@]1(C(C)=O)CC[C@H]2[C@@H]3C[C@H](C)C4=CC(=O)CC[C@]4(C)[C@H]3CC[C@@]21C [medroxyprogesterone 17-acetate] | – | inhibition of the metabolism of 2-acetylnaphtho[2,3-b]furan-4,9-dione [5]: more strongly inhibited than quercitrin
O=C(O)c1ccccc1Nc1cccc(C(F)(F)F)c1 [flufenamic acid] | inhibited | intracellular concentration of 2-acetylnaphtho[2,3-b]furan-4,9-dione in the presence of the metabolic inhibitor [6]: increased; intracellular concentration of 2-acetylnaphtho[2,3-b]furan-4,9-dione in the presence of the metabolic inhibitor [7]: increased
Nc1ccc(S(=O)(=O)c2ccc(N)cc2)cc1 [dapsone] | inhibited | –
Cc1cccc(Nc2ccccc2C(=O)O)c1C [mefenamic acid] | inhibited | anti-tumor activity as a single agent ([8]; 100 mg/kg oral once a day, 5 days on/2 off/5 on): no anti-tumor activity; anti-tumor activity of the combination with 2-acetylnaphtho[2,3-b]furan-4,9-dione vs the dione as a single agent ([8]; 30 or 100 mg/kg dione and 100 mg/kg mefenamic acid oral once a day): significantly improved; concentration of 2-acetylnaphtho[2,3-b]furan-4,9-dione in tumor, combination vs single agent group ([9]; 100 mg/kg dione with 300 mg/kg of mefenamic acid (FIG. 13)): higher; concentration of 2-acetylnaphtho[2,3-b]furan-4,9-dione in plasma, combination vs single agent administration ([9]; 100 mg/kg dione with 100 or 300 mg/kg mefenamic acid, 2, 6, 16 hours (FIG. 13)): higher; intracellular concentration of 2-acetylnaphtho[2,3-b]furan-4,9-dione in the presence of the metabolic inhibitor [6]: increased; intracellular concentration of 2-acetylnaphtho[2,3-b]furan-4,9-dione in the presence of the metabolic inhibitor [7]: increased
O=C1OC(c2ccc(O)cc2)(c2ccc(O)cc2)c2ccccc21 [phenolphthalein] | – | inhibition of the metabolism of 2-acetylnaphtho[2,3-b]furan-4,9-dione [5]: more strongly inhibited than quercitrin
OCc1cc(C(O)CNCCCCCCOCCCCc2ccccc2)ccc1O (centres unmarked) [salmeterol] | inhibited | –
CN(C)CCCN1c2ccccc2Sc2ccc(Cl)cc21 [chlorpromazine] | inhibited | –
CC(=O)c1ccc(S(=O)(=O)NC(=O)NC2CCCCC2)cc1 [acetohexamide] | inhibited | –
CC1=C(CC(=O)O)c2cc(F)ccc2/C1=C\c1ccc([S+](C)[O-])cc1 (centres unmarked) [sulindac] | inhibited | concentration of 2-acetylnaphtho[2,3-b]furan-4,9-dione in plasma, combination vs single agent administration [10]: higher
CCCCc1nc(Cl)c(CO)n1Cc1ccc(-c2ccccc2-c2nn[nH]n2)cc1 [losartan] | inhibited | –
